Results reported in patent publication US20250019377A1 (JACOBIO PHARMACEUTICALS CO., LTD, priority 2021, published 2025).

Key:
[1] = biological target: T1, K-Ras G12V (Homo sapiens, UniProt P01116, G12V); test: SOS1 catalyzed nucleotide exchange assay (GDP form K-Ras), K-Ras G12V; settings: read-out: K-Ras G12V GDP Biochemical Activity (IC50)
[2] = biological target: K-Ras G13D (Homo sapiens, UniProt P01116, G13D); test: biochemical
[3] = biological target: T2, K-Ras WT (Homo sapiens, UniProt P01116); test: SOS1 catalyzed nucleotide exchange assay (GDP form K-Ras), K-Ras WT; settings: read-out: K-Ras WT GDP Biochemical Activity (IC50)
T2 sequence (P01116 1-169 isoform P01116-2): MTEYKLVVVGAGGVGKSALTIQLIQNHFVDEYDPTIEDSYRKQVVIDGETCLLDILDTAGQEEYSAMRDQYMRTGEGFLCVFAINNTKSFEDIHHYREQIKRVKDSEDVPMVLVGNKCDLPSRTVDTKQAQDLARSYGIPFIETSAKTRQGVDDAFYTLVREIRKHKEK

[4] = biological target: T1, K-Ras G12V; test: biochemical
[5] = test system: SW620 cells (K-Ras G12V); test: 2D cell growth inhibition assay, SW620; assay type: cell-based; settings: 6 days, absolute IC50
[6] = test system: p-ERK in SW620 cells (K-Ras G12V); test: Phospho-ERK1/2(THR202/TYR204) HTRF assay, SW620; assay type: cell-based; settings: 2 hours incubation
[7] = test system: AGS cells (K-Ras G12D); test: 2D cell growth inhibition assay, AGS; assay type: cell-based; settings: 6 days, absolute IC50
[8] = biological target: T2, K-Ras WT; test: biochemical
[9] = test system: AsPC-1 cells (K-Ras G12D); test: 2D cell growth inhibition assay, AsPC-1; assay type: cell-based; settings: AsPC-1, K-Ras G12D, 6 days, absolute IC50
[10] = test system: p-ERK in AGS cells (K-Ras G12D); test: Phospho-ERK1/2(THR202/TYR204) HTRF assay, AGS; assay type: cell-based; settings: 2 hours incubation
Method: (§1) p-ERK (MAPK pathway) inhibition activity of each of compounds in a variety of K-Ras mutant and K-Ras WT cell lines indicated in Table 23 was evaluated.
(§2) Each of cells in culture medium was seeded in 96-well plates at density indicated in Table 23 and then put in a cell incubator to incubate overnight. The next day, the culture medium was removed and the compound diluted in assay medium was added in each well. […] 10 μL of cell lysates from the 96-well plates were transferred to a 384-well plate (Greiner) containing 2.5 μL/well HTRF® pre-mixed antibodies (Cisbio 64AERPEH). The plate was incubated 4 hours at 25° C. and then read HTRF signals on Tecan Spark multimode microplate reader. The data were analyzed using a 4-parameter logistic model to calculate IC50 values.

[11] = test system: NCI-H747 cells (K-Ras G13D)
Method: The cell growth inhibition activity of each of compounds was tested by performing cell growth inhibition assays on a variety of K-Ras mutant and K-Ras WT cell lines indicated in Table 25.
Each of cells in culture medium was plated in ultra-low attachment-coated 96-well plates at a density indicated in Table 25 and incubated in a cell incubator overnight. The next day, each of compounds was diluted in culture medium and added to the plates. After 6 days incubation in cell incubator, the cell viability was detected by CellTiter-Glo® 3D Cell Viability Assay kit (Promega).

[12] = test system: p-ERK in NCI-H747 cells (K-Ras G13D)
Method: as §1, §2

Sequence of K-Ras G13D (P01116 1-169 isoform P01116-2 G13D): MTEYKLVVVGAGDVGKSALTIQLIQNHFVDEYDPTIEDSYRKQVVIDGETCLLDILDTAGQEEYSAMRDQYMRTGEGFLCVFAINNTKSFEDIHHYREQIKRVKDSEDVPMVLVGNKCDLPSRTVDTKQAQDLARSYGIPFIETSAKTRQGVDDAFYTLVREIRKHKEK
T1 sequence (P01116 1-169 isoform P01116-2 G12V): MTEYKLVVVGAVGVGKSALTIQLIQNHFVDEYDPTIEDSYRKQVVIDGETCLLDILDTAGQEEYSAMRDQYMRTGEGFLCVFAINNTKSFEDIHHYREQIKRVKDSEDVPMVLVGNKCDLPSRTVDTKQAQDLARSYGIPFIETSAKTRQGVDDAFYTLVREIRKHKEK

SMILES | IC50 [1] [nM] | IC50 [2] [nM] | IC50 [3] [nM] | IC50 [4] [nM] | IC50 ([5]; Homo sapiens, SW-620, 144 h) [nM] | IC50 ([6]; Homo sapiens, SW-620, 2 h) [nM] | IC50 ([7]; Homo sapiens, 144 h) [nM] | IC50 [8] [nM] | IC50 ([9]; Homo sapiens, ASPC1, 144 h) [nM] | IC50 ([10]; Homo sapiens, 2 h) [nM] | IC50 [5] [nM] | IC50 [6] [nM] | IC50 [7] [nM] | IC50 [9] [nM] | IC50 [10] [nM] | IC50 [11] [nM] | IC50 [12] [nM]
C#Cc1c(F)ccc2cc(O)cc(-c3ncc4c(N5CCOCC(C#N)C5)nc(OC[C@@]56CCCN5C[C@H](F)C6)nc4c3F)c12 (stereo partly drawn) [Compound 88] | 13.6 | > 100 | 28.5 | 2850 | – | – | – | – | – | – | – | – | – | – | – | – | –
C#Cc1c(F)ccc2cc(O)cc(-c3ncc4c(N5CCCO[C@@H](CC#N)C5)nc(OC[C@@]56CCCN5C[C@H](F)C6)nc4c3F)c12 (single isomer, unassigned) [Compound 15B] | 0.873 | – | 1.4 | 331 | 59.6 | 30.1 | 30.4 | 173 | 465 | 13.9 | – | – | – | – | – | – | –
C#Cc1c(F)ccc2cc(O)cc(-c3ncc4c(N5CCOC[C@@H](C)C5)nc(OC[C@@]56CCCN5C[C@H](F)C6)nc4c3F)c12 (single isomer, unassigned) [Compound 13A] | 4.08 | – | 5.99 | 1210 | 93.6 | 42.3 | 122 | 794 | 680 | 44.4 | – | – | – | – | – | – | –
C#Cc1c(F)ccc2cc(O)cc(-c3ncc4c(N5CCCO[C@@H](C)C5)nc(OC[C@@]56CCCN5C[C@H](F)C6)nc4c3F)c12 (single isomer, unassigned) [Compound 8A, trifluoroacetic acid] | 2.49 | – | 4.7 | 170 | 133 | 37.6 | 98.1 | 255 | 608 | 21.7 | – | – | – | – | – | – | –
C#Cc1c(F)ccc2cc(O)cc(-c3ncc4c(N5CCCOCC5)nc(OCC56CCCN5C[C@](C)(F)C6)nc4c3F)c12 (single isomer, unassigned) [Compound 32B] | 1.97 | – | 3.12 | 69.7 | 27.9 | 17.1 | 18.6 | 77.4 | 135 | 12.1 | – | – | – | – | – | – | –
C#Cc1c(F)ccc2cc(O)cc(-c3ncc4c(N5CCOC[C@H](O)C5)nc(OC[C@@]56CCCN5C[C@H](F)C6)nc4c3F)c12 (single isomer, unassigned) [Compound 46A] | 3.12 | – | 7.95 | 343 | 630 | 321 | 187 | 394 | 2870 | 83.9 | – | – | – | – | – | – | –
C#Cc1c(F)ccc2cc(O)cc(-c3c(C(F)(F)F)cc4c(N5CCCOCC5)nc(OC[C@@]56CCCN5C[C@H](F)C6)nc4c3F)c12 [Compound 37, 5-ethynyl-6-fluoro-4-(8-fluoro-2-(((2R,7aS)-2-fluorotetrahydro-1H-pyrrolizin-7a(5H)-yl)methoxy)-4-(1,4-oxazepan-4-yl)-6-(trifluoromethyl)quinazolin-7-yl)naphthalen-2-ol] | 6.71 | > 100 | 9.93 | 147 | 330 | 92 | 278 | 228 | 629 | 49.2 | – | – | – | – | – | – | –
C#Cc1c(F)ccc2cc(O)cc(-c3ncc4c(N5CCOC(C)CC5)nc(OC[C@@]56CCCN5C[C@H](F)C6)nc4c3F)c12 (stereo partly drawn) [Compound 17, 5-ethynyl-6-fluoro-4-(8-fluoro-2-(((2R,7aS)-2-fluorotetrahydro-1H-pyrrolizin-7a(5H)-yl)methoxy)-4-(7-methyl-1,4-oxazepan-4-yl)pyrido[4,3-d]pyrimidin-7-yl)naphthalen-2-ol trifluoroacetic acid] | 26.8 | 61.2 | – | 796 | – | – | – | – | – | – | – | – | – | – | – | – | –
C#Cc1c(F)ccc2cc(O)cc(-c3ncc4c(N5CC6COC(C6)C5)nc(OC[C@@]56CCCN5C[C@H](F)C6)nc4c3F)c12 (single isomer, unassigned) [Compound 84A, 4-(4-((1R,5S)-6-oxa-3-azabicyclo[3.2.1]octan-3-yl)-8-fluoro-2-(((2R,7aS)-2-fluorotetra-hydro-1H-pyrrolizin-7a(5H)-yl)methoxy)pyrido[4,3-d]pyrimidin-7-yl)-5-ethynyl-6-fluoronaphthalen-2-ol or 4-(4-((1S,5R)-6-oxa-3-azabicyclo[3.2.1]octan-3-yl)-8-fluoro-2-(((2R,7aS)-2-fluorotetra-hydro-1H-pyrrolizin-7a(5H)-yl)methoxy)pyrido[4,3-d]pyrimidin-7-yl)-5-ethynyl-6-fluoronaphthalen-2-ol] | 3.43 | – | 11.4 | 3720 | – | – | – | 2990 | – | – | 60.6 | 19.4 | 203 | 1100 | 29.1 | – | –
C#Cc1c(F)ccc2cc(O)cc(-c3ncc4c(N5CCCOCC5)nc(OCC56CCCN5CC(C)(F)C6)nc4c3F)c12 (stereo not drawn) [Compound 10, 5-ethynyl-6-fluoro-4-(8-fluoro-2-((2-fluoro-2-methyltetrahydro-1H-pyrrolizin-7a(5H)-yl)methoxy)-4-(1,4-oxazepan-4-yl)pyrido[4,3-d]pyrimidin-7-yl)naphthalen-2-ol] | 1.28 | – | 2.05 | 40.6 | 10.5 | 10.6 | 26.2 | 62.1 | 228 | 6.71 | – | – | – | – | – | – | –
C#Cc1c(F)ccc2cc(O)cc(-c3ncc4c(N5CCOC[C@@H](O)C5)nc(OC[C@@]56CCCN5C[C@H](F)C6)nc4c3F)c12 (single isomer, unassigned) [Compound 46B] | 1.26 | – | 0.964 | 50.9 | 50.1 | 45.7 | 20.6 | 31.7 | 446 | 15 | – | – | – | – | – | – | –
C#Cc1c(F)ccc2cc(O)cc(-c3ncc4c(N5CCCOCC5)nc(OCC56CCCN5CCC6)nc4c3F)c12 [Compound 21, 5-ethynyl-6-fluoro-4-(8-fluoro-4-(1,4-oxazepan-4-yl)-2-((tetrahydro-1H-pyrrolizin-7a(5H)-yl)methoxy)pyrido[4,3-d]pyrimidin-7-yl)naphthalen-2-ol trifluoroacetic acid] | – | – | – | – | 61.4 | 135 | 51.9 | – | 1350 | 10.2 | – | – | – | – | – | 126 | 60.7
C#Cc1c(F)ccc2cc(O)cc(-c3ncc4c(N5CCOC[C@H](C)C5)nc(OC[C@@]56CCCN5C[C@H](F)C6)nc4c3F)c12 (single isomer, unassigned) [Compound 13B] | 0.658 | – | 0.76 | 35.7 | 5.48 | 5.82 | 6.35 | 14.2 | 43 | 1.1 | – | – | – | – | – | – | –
C#Cc1c(F)ccc2cc(O)cc(-c3ncc4c(N5CCOC[C@@H](F)C5)nc(OC[C@@]56CCCN5C[C@H](F)C6)nc4c3F)c12 (single isomer, unassigned) [Compound 12A] | 1.48 | – | 2.26 | 184 | 25.2 | 14 | 24.2 | 105 | 301 | 13 | – | – | – | – | – | – | –
C#Cc1c(F)ccc2cc(O)cc(-c3ncc4c(N5CCCOCC5)nc(OCC56CCCN5C[C@@](C)(F)C6)nc4c3F)c12 (single isomer, unassigned) [Compound 32A] | 1.37 | – | 2.66 | 62.6 | 28.6 | 30 | 20.6 | 70.4 | 150 | 10.4 | – | – | – | – | – | – | –
C#Cc1c(F)ccc2cc(O)cc(-c3ncc4c(N5CC(C)COCC5C)nc(OC[C@@]56CCCN5C[C@H](F)C6)nc4c3F)c12 (stereo partly drawn) [Compound 27, 4-(4-(3,6-dimethyl-1,4-oxazepan-4-yl)-8-fluoro-2-(((2R,7aS)-2-fluorotetrahydro-1H-pyrrolizin-7a(5H)-yl)methoxy)pyrido[4,3-d]pyrimidin-7-yl)-5-ethynyl-6-fluoronaphthalen-2-ol] | 8.13 | – | 9.51 | 720 | 90.7 | 144 | 216 | 235 | 904 | 65.1 | – | – | – | – | – | – | –
C#Cc1c(F)ccc2cc(O)cc(-c3ncc4c(N5CCCO[C@H](C)C5)nc(OC[C@@]56CCCN5C[C@H](F)C6)nc4c3F)c12 (single isomer, unassigned) [Compound 8B, trifluoroacetic acid] | 1.53 | – | 1.71 | 16.3 | 19.6 | 8.91 | 27.4 | 36.4 | 153 | 5.94 | – | – | – | – | – | – | –
